# Results: patent US20220098191A1 (priority 2019, published 2022)
# Values joined by “and” are separate entries in the source; they are usually repeats but may differ in a detail not shown here. Identical values can stand only once.
# Assays:
# LIM1215 (Gastric) = experiment: MTT in vitro cytotoxicity, 72 hour incubation; format: cell-based; settings: MTT assay, LIM1215 cells
# Method: (§1) The in vitro cytotoxicity of a selection of compounds was determined in a panel of cell lines using the standard MTT assay for a 72 hour incubation period (Table 1).
# (§2) Tumor cell lines were maintained in RPMI1640 medium supplemented with 10% heat-inactivated fetal bovine serum, 2 mM L-glutamine and 1 mM sodium pyruvate. 1800 cells per well were seeded in a volume of 180 μl in a 96-well flat bottom polystyrene plate. The cells were allowed to adhere overnight at 37° C. in a CO2 incubator. Ligands were initially formulated in DMSO, and stocks stored at −80° C. They were then further formulated at lox concentration in RPMI1640 medium. 20 μl of diluted samples were added into each treatment well. On each plate, blank wells with no cells, and untreated wells containing cells, were included. Plates were then cultured at 37° C. in a CO2 incubator for 72 hrs. Cytotoxicity was evaluated using a tetrazolium salt-based assay, the MTT assay. After 72 hours, the supernatant was removed from each well and 200 μl of a sterile filtered 500 μg/ml MTT solution in water added to each well. The plates were then incubated at 37° C. in a CO2 incubator for 4 hrs. The supernatant was then removed and the formazan crystals formed solubilized by adding 150 μl of DMSO to each well. The plate was then read on a plate reader at 540 nm, and percentage cell survival calculated as follows: ((mean absorbance treated wells at concentration×−mean absorbance blank wells)÷(mean absorbance untreated wells at concentration×−mean absorbance blank wells))×100. Data were plotted as concentration in nM vs. % cell survival in Microsoft Excel, and IC50 values (concentration where cell survival is reduced by a half) were determined from the graph.
# SW48 (Gastric) = experiment: MTT in vitro cytotoxicity, 72 hour incubation; format: cell-based; settings: Homo sapiens, MTT assay, SW48 cells
# Method: as §1, §2
# SW620 (Gastric) = experiment: MTT in vitro cytotoxicity, 72 hour incubation; format: cell-based; settings: Homo sapiens, SW-620, MTT assay, SW620 cells
# Method: as §1, §2
# JVM2 (Lymphoma) = experiment: MTT in vitro cytotoxicity, 72 hour incubation; format: cell-based; settings: Homo sapiens, JVM-2, MTT assay, JVM2 cells
# Method: as §1, §2
# Jurkat (Leukaemia) = experiment: MTT in vitro cytotoxicity, 72 hour incubation; format: cell-based; settings: Homo sapiens, MTT assay, Jurkat cells
# Method: as §1, §2
# RAJI (Lymphoma) = experiment: MTT in vitro cytotoxicity, 72 hour incubation; format: cell-based; settings: Homo sapiens, MTT assay, RAJI cells
# Method: as §1, §2
# [1] = Hydrophobicity investigation of free payloads by UPLC (hydrophobicity model); format: physicochemical; settings: single runs 1-3 (triplicate), 0.1% TFA water/acetonitrile gradient
# Method: Both mobile phases were filtered through 0.22 μm filters and degassed by sonication under argon. Caffeine (Merck, UPLC grade) was employed a standard. Blank solvent samples (i.e., DMSO) were used during sample runs to confirm lack of carryover between injections and to monitor column performance.
# UPLC-MS analysis was performed on a Waters Acquity H-Class Ultra-Performance Liquid Chromatography (UPLC) System equipped with an Acquity UPLC BEH, […] 50×2.10 mm (Waters, UK) column and a photodiode array detector […], using Waters MassLynx software. The gradient system used for LC analysis consisted of 0.1% trifluoroacetic acid (TFA) in water as Solvent A, and 0.1% trifluoroacetic acid (TFA) in acetonitrile as Solvent B. TFA was purchased from Merck (UK), and diluted to the required concentration with UPLC grade water and acetonitrile for Solvent A and Solvent B, respectively. TFA was added to ensure acidic conditions throughout the analysis. A flow rate of 0.4 mL/min was used, and the detection wavelength was 254 nm. Mass spectrometry data were collected using a Waters SQ Detector 2 coupled to a Waters Acquity H Class UPLC and a Photo Diode Array Detector (ACQ-PDA). The Waters SQ Detector 2 parameters were set to: Capillary (kV), 3.00; Cone (V), 30; De-solvation Temperature (° C.), 600; Cone flow rate (L/h), 50; De-solvation flow rate (L/h), 600.
# Gradient method used: from 95% A/5% B to 20% B over 5 min. Then from 20% B to 60% B over 35 min, followed by from 60% B to 85% B over 10 min. It was further changed from 85% B to 90% B over 5 min and kept for a further 5 min. Finally, from 90% B to 95% B over 2.5 min, and then to 20% B over 2.5 min. 10 μL was split via a zero-dead volume T-piece which passed into the mass spectrometer.
# Compounds were provided in powder form and were dissolved in DMSO to achieve 5 mM stock solution. This solution was then diluted to 500 μM with 50% acetonitrile/50% water.
# A number of commercially available ADC payloads and internal reference compounds were also incorporated into the analysis, and their structures are presented in Table 3.
Structure (SMILES),IC50 (LIM1215 (Gastric)) [nM],IC50 (SW48 (Gastric)) [nM],IC50 (SW620 (Gastric)) [nM],IC50 (JVM2 (Lymphoma)) [nM],IC50 (Jurkat (Leukaemia)) [nM],IC50 (RAJI (Lymphoma)) [nM],Retention Time (min) seco form ([1]; seco form),Retention Time (min) spiro form ([1]; spiro form)
"CNS(=O)(=O)c1ccc(C2=CCN3C(=O)c4cc(OC)c(OCc5cccc(CC(=O)N6C[C@@H](CCl)c7c6cc(O)c6ccccc76)c5)cc4N=C[C@@H]3C2)cc1 [Compound 31, 4-((S)-3-((3-(2-((S)-1-(Chloromethyl)-5-hydroxy-1,2-dihydro-3H-benzo[e]indol-3-yl)-2-oxoethyl)benzyl)oxy)-2-methoxy-12-oxo-6a,7,10,12-tetrahydrobenzo[e]pyrido[1,2-a][1,4]diazepin-8-yl)-N-methylbenzenesulfonamide]",2.7,1.3,0.35,–,–,–,–,–
"CNS(=O)(=O)c1ccc(C2=CCN3C(=O)c4cc(OC)c(OCc5cccc(CC(=O)N6C[C@@H](CCl)c7c6cc(O)c6ccccc76)n5)cc4N=C[C@@H]3C2)cc1 [Compound 35, 4-((S)-3-((6-(2-((S)-1-(Chloromethyl)-5-hydroxy-1,2-dihydro-3H-benzo[e]indol-3-yl)-2-oxoethyl)pyridin-2-yl)methoxy)-2-methoxy-12-oxo-6a,7,10,12-tetrahydrobenzo[e]pyrido[1,2-a][1,4]diazepin-8-yl)-N-methylbenzenesulfonamide]",4.38,3.15,2.12,–,–,–,–,–
"CNS(=O)(=O)c1ccc(C2=CCN3C(=O)c4cc(OC)c(OCCCCCC(=O)N5C[C@@H](CCl)c6c5cc(O)c5ccccc65)cc4N=C[C@@H]3C2)cc1 [Compound 72, 4-((S)-3-((6-((S)-1-(Chloromethyl)-5-hydroxy-1,2-dihydro-3H-benzo[e]indol-3-yl)-6-oxohexyl)oxy)-2-methoxy-12-oxo-6a,7,10,12-tetrahydrobenzo[e]pyrido[1,2-a][1,4]diazepin-8-yl)-N-methylbenzenesulfonamide]",0.32,0.29,0.21,0.0016,0.0015,0.0019,24.02 min and 24.04 min,17.11 min and 17.15 min
